pIC50: −log10 of the molar value.
Tests used:
[1] = Pharmacokinetic studies in rats, oral gavage, plasma LC-MS/MS; assay type: in vivo; details: male, Wistar-Hannover; rat, 5 mg/kg PO, 40% PEG400/10% Tween-80/50% water; plasma concentration of Parent after dosing the Parent compound
Experimental: All animal studies were carried out under Good Laboratory Practice regulations for nonclinical laboratory studies. All animal housing and care procedures were in compliance with the Federal Animal Welfare Act and the Institute for Laboratory Animal Resources. All procedures carried out on the animals were reviewed and approved by the Institutional Animal Care and Use Committee. The animal facility was fully accredited with the Association for Assessment and Accreditation of Laboratory Animal Care International.
Two or three male Wistar-Hannover rats weighing 250 to 350 grams with vendor-placed carotid artery catheters were obtained from Charles River (Raleigh, N.C., U.S.A.). Animals were acclimated on a 12-hour light:dark cycle for a minimum of three days in ventilated plastic cages with food and water ad libitum. Blood samples were automatically collected using the Instech Automated Blood sampler (ABS, Plymouth Meeting, Pa.) at designated intervals up to 24 hr and were manually collected post 24 hr.
Animals were fasted overnight before either the Parent compounds of Examples 1-8 (Formula I′) or compounds of Examples 1 to 8 (Formula I) were administered to rats via an oral gavage at the doses and in vehicles specified in Table 3. The animals were allowed access to water ad libitum, while food was returned 4 hours after dosing.
Blood was drawn from catheters placed in the carotid […] at pre-dose, and 0.25, 0.5, 1, 2, 4, 8, 12, 18, 24, 30, and 48 hr after dosing for all compounds and additionally at 72 hr for compounds of example 1, 3, 4, 5, and 7. The plasma was separated by centrifugation (2 minutes at 10000 rpm) and stored at −70° C. until further analysis.
The quantitative analysis of the compounds was performed using a liquid chromatography and tandem mass spectrometry method (LC-MS/MS). The plasma samples were stabilized as needed prior to extraction. Fifty microliter of each unknown together with the standards and quality control samples were extracted using an automated protein precipitation procedure on a Hamilton workstation. The extract was centrifuged and the supernatant was transferred for analysis. The separation was enabled by a Thermo Aria LX-2 LC system on a reversed phase column e g Waters XSelect HSS T3 XP (50×2.1 mm×2.5 u) or Phenomenex Beta Test Column (50×2.1 mm). The compounds were detected using selected reaction monitoring (SRM) methods by an AB Sciex API5000 mass spectrometer in the positive or negative ionization mode. In addition, chromatographic peaks for Parent compounds of Examples 1-8 (Formula I′) and compounds of Examples 1 to 8 (Formula I) were resolved chromatographically with baseline to baseline separation.
Pharmacokinetic parameters were obtained using noncompartmental methods (Watson®). The area under the plasma concentration-time curve (AUC0-t) was calculated from the first time point (0 minutes) up to the last time point with measurable drug concentration (i.e., concentration of Parent (Formula I′ compound) resulting after administration of each of the Parent and Example compounds) using the linear trapezoidal or linear/log-linear trapezoidal rule. The remaining area under the plasma concentration-time curve (AUCt-∞) was estimated by dividing the observed concentration at the last time point by the elimination rate constant. This value was added to AUC0-t to estimate the AUC0-∞. The maximum plasma concentration (Cmax) and the time at which maximum concentration occurred (Tmax) were obtained by inspection of the plasma concentration-time data.
Table 3 provides AUC values obtained in these studies. In Table 3, the Parent of each Example number refers to the Parent counterpart compound of said Example number compound wherein R^4 is replaced with —H.

[2] = biological target: T1, HIV-1 RT wild-type enzyme (Human immunodeficiency virus type 1 group M subtype B, UniProt P04585); experiment: Determination of HIV-1 reverse transcriptase inhibitory activity (RT polymerase assay, electrochemiluminescence); assay type: biochemical
T1 construct: The HIV-1 RT wild-type enzyme (final concentration of 83 pM)
From the text: Determination of HIV-1 Reverse Transcriptase Inhibitory Activity
The heterodimeric nucleic acid substrate used in the HIV-1 RT polymerase reactions was generated by annealing the DNA primer, biotinylated pD500 (Sigma Aldrich, USA, 5′-biotin-ttg aaa tga ctg cgg tac ggc-3′), (SEQ ID NO: 1) to the nucleotide RNA template t500 (derived from hepatitis C virus [HCV] sequence, IBA, Germany, 5′-[…]-3′), (SEQ ID NO: 2). The HIV-1 RT wild-type enzyme (final concentration of 83 pM) was combined with an inhibitor or dimethyl sulfoxide (DMSO, 10% in the final reaction mixture) in assay buffer (62.5 mM Tris-HCl [pH 7.8], 1.25 mM dithiothreitol, 7.5 mM MgCl2, 100 mM KCl, 0.03% CHAPS, and 125 μM EGTA). The mixture was then preincubated on an orbital shaker for 30 min at room temperature in microtiter plates (Costar 3365, Corning, USA). A polymerization reaction was initiated by the addition of RNA template/pD500 DNA primer hybrid (16.6 nM final of RNA/DNA hybrid) and dNTPs (2 μM dATP, dGTP, dCTP and 66.6 nM Ru-dUTP (Meso Scale Discovery, USA)). Plate was sealed and incubated for 5-10 min at room temperature on an orbital shaker. Plate was then incubated for 90 min at 37° C. and reactions quenched with 60 μl quenching buffer (50 mM EDTA, 0.7% BSA, 0.7% Tween-20, 0.017% sodium azide in PBS). The resulting solution was incubated at room temperature for an additional 5 min and then 50 μL was transferred to pre-blocked Avidin plates (L15AA, Meso Scale Discovery). Each well of Avidin plate was blocked for 1 h at room temperature with 100 μL 5% BSA in PBS. Blocking solution was removed by tapping vigorously on filter paper to remove all excess liquid. Reaction on pre-blocked avidin plate proceeded for 60 min at room temperature and then contents removed by tapping vigorously on filter paper to remove all excess liquid. After washing plate 3 times with 150 μL 1×PBS and blotting dry between cycles, 150 μL 1× Read Buffer T (4× Read Buffer T, Meso Scale Discovery) was added and incubated for 5 min at room temperature before counting on a Sector Imager […] (Meso Scale Discovery). Titration curves and IC50 values were calculated using a four parameter logistic fit according to standard procedures. Briefly, % Inhibition=100×((sample raw value)−(mean value of the low control or 0% inhibition))/((mean value of wells representing 100% inhibition)−(mean value of 0% inhibition)). In this assay, low control wells contain DMSO (0% inhibition) and 100% inhibition wells contain 1 μM efavirenz.

Structure (SMILES) | AUC(0-inf) [1] [µM·h] | pIC50 [2]
N#Cc1cc(Cl)cc(Oc2c(C(F)F)ncn(Cc3cc(Cl)n[nH]c3=O)c2=O)c1 [Parent of Ex. 2, 3-chloro-5-((1-((6-chloro-3-oxo-2,3-dihydropyridazin-4-yl)methyl)-4-(difluoromethyl)-6-oxo-1,6-dihydropyrimidin-5-yl)oxy)benzonitrile] | 15.3 | 8.48
N#Cc1cc(Cl)cc(Oc2c(C(F)(F)F)ncn(Cc3cc(Cl)n[nH]c3=O)c2=O)c1 [Parent of Ex. 3, 3-chloro-5-((1-((6-chloro-3-oxo-2,3-dihydropyridazin-4-yl)methyl)-6-oxo-4-(trifluoromethyl)-1,6-dihydropyrimidin-5-yl)oxy)benzonitrile] | 10.2 | 8.57
N#Cc1cc(Cl)cc(Oc2c(C(F)(F)F)ncn(Cc3cc(C(F)F)n[nH]c3=O)c2=O)c1 [Parent of Ex. 4, 3-chloro-5-((1-((6-(difluoromethyl)-3-oxo-2,3-dihydropyridazin-4-yl)methyl)-6-oxo-4-(trifluoromethyl)-1,6-dihydropyrimidin-5-yl)oxy)benzonitrile] | 21 | 8.49
CC(F)(F)c1cc(Cn2cnc(C(F)(F)F)c(Oc3cc(Cl)cc(C#N)c3)c2=O)c(=O)[nH]n1 [Parent of Ex. 5, 3-chloro-5-((1-((6-(1,1-difluoroethyl)-3-oxo-2,3-dihydropyridazin-4-yl)methyl)-6-oxo-4-(trifluoromethyl)-1,6-dihydropyrimidin-5-yl)oxy)benzonitrile] | 29.1 | 8.34
N#Cc1cc(Cl)cc(Oc2c(C(F)(F)F)ncn(Cc3cc(C(F)(F)F)c(=O)[nH]n3)c2=O)c1 [Parent of Ex. 6, 3-chloro-5-((6-oxo-1-((6-oxo-5-(trifluoromethyl)-1,6-dihydropyridazin-3-yl)methyl)-4-(trifluoromethyl)-1,6-dihydropyrimidin-5-yl)oxy)benzonitrile] | 2 | 8.10
N#Cc1cc(Cl)cc(Oc2c(C(F)(F)F)ncn(Cc3cc(-c4ccc(F)cc4)c(=O)[nH]n3)c2=O)c1 [Parent of Ex. 7, 3-chloro-5-((1-((5-(4-fluorophenyl)-6-oxo-1,6-dihydropyridazin-3-yl)methyl)-6-oxo-4-(trifluoromethyl)-1,6-dihydropyrimidin-5-yl)oxy)benzonitrile] | 8.2 | 8.43
CC(F)(F)c1cc(Cn2cnc(C(C)(F)F)c(Oc3cc(Cl)cc(C#N)c3)c2=O)c(=O)[nH]n1 [Parent of Ex. 8, 3-chloro-5-((4-(1,1-difluoroethyl)-1-((6-(1,1-difluoroethyl)-3-oxo-2,3-dihydropyridazin-4-yl)methyl)-6-oxo-1,6-dihydropyrimidin-5-yl)oxy)benzonitrile] | 13.9 | 8.33
